Several values for one entry are separate records, joined by “and”; a condition that tells them apart may be missing. Equal values may be shown once. Toxic doses and inconclusive results are not listed.
System: CD2F1 mice, ip reticulum cell sarcoma, survival T/C
Assay: NCI In Vivo Anticancer Drug Screen. Data for tumor model Reticulum Cell Sarcoma (Kelley Mouse) (intraperitoneal) in CD2F1 (CDF1) mice
Settings: endpoint: median survival time, schedule: Q01DX010 (ip), higher = longer survival
Description: The antitumor activity of compounds was measured in mice bearing transplantable tumors. Survival or tumor size were measured and the results are expressed as the measurement made in the treated group (T) divided by the measurement made in the vehicle treated control group (C). The tumor model used in this assay is Reticulum Cell Sarcoma (Kelley Mouse) (intraperitoneal) in CD2F1 (CDF1) mice

[1] = dose: 1.0 mg/kg/injection, vehicle: saline
[2] = dose: 2.0 mg/kg/injection, vehicle: saline
[3] = dose: 6.25 mg/kg/injection, vehicle: saline
[4] = dose: 12.5 mg/kg/injection, vehicle: saline
[5] = dose: 100.0 mg/kg/injection, vehicle: saline
[6] = dose: 200.0 mg/kg/injection, vehicle: saline
[7] = dose: 8.0 mg/kg/injection, vehicle: saline
[8] = dose: 7.5 mg/kg/injection, vehicle: saline
[9] = dose: 15.0 mg/kg/injection, vehicle: saline
[10] = dose: 30.0 mg/kg/injection, vehicle: saline
[11] = dose: 2.5 mg/kg/injection, vehicle: saline
[12] = dose: 5.0 mg/kg/injection, vehicle: saline
[13] = dose: 10.0 mg/kg/injection, vehicle: saline
[14] = dose: 20.0 mg/kg/injection, vehicle: saline
[15] = dose: 40.0 mg/kg/injection, vehicle: saline
[16] = dose: 3.13 mg/kg/injection, vehicle: saline
[17] = dose: 25.0 mg/kg/injection, vehicle: saline
[18] = dose: 50.0 mg/kg/injection, vehicle: saline
[19] = dose: 1.0 mg/kg/injection, vehicle: other
[20] = dose: 2.0 mg/kg/injection, vehicle: other
[21] = dose: 16.0 mg/kg/injection, vehicle: saline
[22] = dose: 32.0 mg/kg/injection, vehicle: saline
[23] = dose: 64.0 mg/kg/injection, vehicle: saline
[24] = dose: 62.5 mg/kg/injection, vehicle: saline
[25] = dose: 125.0 mg/kg/injection, vehicle: saline
[26] = dose: 250.0 mg/kg/injection, vehicle: saline
[27] = dose: 80.0 mg/kg/injection, vehicle: saline
[28] = dose: 4.0 mg/kg/injection, vehicle: other
[29] = dose: 8.0 mg/kg/injection, vehicle: other
[30] = dose: 16.0 mg/kg/injection, vehicle: other
[31] = dose: 32.0 mg/kg/injection, vehicle: other

For `Nc1nc(=S)c2ncn(C3OC(CO)C(O)C3O)c2[nH]1` (stereo not given), the T/C [1] was 178 % of control, the T/C [2] was 182 % of control and the T/C (dose: 4.0 mg/kg/injection, vehicle: saline) was 103 % of control.
`O=C(O)CCCc1ccc(N(CCCl)CCCl)cc1` was tested, and the T/C [3] was 103 % of control and the T/C [4] was 106 % of control.
With `CCN(CC)CCNc1ccc(C)c2sc3ccccc3c(=O)c12` the T/C [5] was 106 % of control and the T/C [6] was 103 % of control and 106 % of control.
For `O=C(Nc1ccc(C2=NCCN2)cc1)c1ccc(C(=O)Nc2ccc(C3=NCCN3)cc2)c([N+](=O)[O-])c1`, the T/C (dose: 6.0 mg/kg/injection, vehicle: saline) was 168 % of control, the T/C [7] was 255 % of control and 297 % of control and the T/C (dose: 12.0 mg/kg/injection, vehicle: saline) was 281 % of control and 300 % of control.
`CN(C)[C@@H]1C(=O)C(C(N)=O)=C(O)[C@@]2(O)C(=O)C3=C(O)c4c(O)cccc4C[C@H]3C[C@@H]12` was tested, and the T/C (dose: 3.75 mg/kg/injection, vehicle: saline) was 100 % of control, the T/C [8] was 105 % of control and 107 % of control and the T/C [9] was 100 % of control and 102 % of control. For the same compound, the T/C [10] was 94 % of control and 100 % of control.
With `CS(=O)(=O)OCCN(CCOS(C)(=O)=O)c1ccc(N=O)cc1` the T/C [1] was 103 % of control and 110 % of control, the T/C [2] was 96 % of control and the T/C (dose: 62.5 micrograms/kg/injection, vehicle: saline) was 116 % of control. For the same compound, the T/C (dose: 250.0 micrograms/kg/injection, vehicle: saline) was 166 % of control and the T/C (dose: 500.0 micrograms/kg/injection, vehicle: saline) was 175 % of control.
`N#[N+]c1cnc([O-])[nH]c1=O` was tested, and the T/C (dose: 1.25 mg/kg/injection, vehicle: saline) was 100 % of control, the T/C [11] was 100 % of control and 112 % of control and the T/C [12] was 112 % of control and 118 % of control. The T/C [13] was 106 % of control.
`S=P(N1CCOCC1)(N1CC1)N1CC1` was tested, and the T/C [11] was 100 % of control and 103 % of control, the T/C [12] was 100 % of control and 106 % of control and the T/C [13] was 100 % of control and 106 % of control.
`O=c1[nH]c(=O)n(C2CC(O)C(CO)O2)cc1F` (stereo not given) was tested, and the T/C [12] was 156 % of control, the T/C [14] was 171 % of control and the T/C [15] was 187 % of control.
For `N=[N+]=CC(=O)OCC(N)C(=O)O` (stereo not given), the T/C [16] was 106 % of control, the T/C [3] was 113 % of control and the T/C [4] was 120 % of control. The T/C [17] was 116 % of control.
For `CSc1ncnc2nc[nH]c12`, the T/C [17] was 100 % of control, the T/C [18] was 100 % of control and the T/C [5] was 93 % of control. The T/C [6] was 100 % of control.
`O=C(Nc1ccc(C2=NCCCN2)cc1)c1ccc(C(=O)Nc2ccc(C3=NCCCN3)cc2)cc1` was tested, and the T/C (dose: 0.5 mg/kg/injection, vehicle: other) was 117 % of control and 120 % of control, the T/C [19] was 186 % of control and 202 % of control and the T/C [20] was 248 % of control.
`NC(Cc1ccc(N(CCCl)CCCl)cc1)C(=O)O` (stereo not given) was tested, and the T/C [13] was 100 % of control.
For `CS(=O)(=O)OCCC(=O)N1CCN(C(=O)CCOS(C)(=O)=O)CC1`, the T/C [4] was 111 % of control and 114 % of control, the T/C [18] was 114 % of control and the T/C [5] was 114 % of control.
In the case of `c1ccc(CNc2ncnc3[nH]ncc23)cc1`, the T/C [7] is reported as 100 % of control and 105 % of control, the T/C [21] is reported as 100 % of control and 105 % of control and the T/C [22] is reported as 100 % of control and 105 % of control. For the same compound, the T/C [23] was 95 % of control and 97 % of control.
With `C[C@@H]1C[C@@H]([C@H](O)CC2CC(=O)NC(=O)C2)C(=O)[C@@H](C)C1` the T/C [12] was 97 % of control and 100 % of control, the T/C [13] was 105 % of control and 108 % of control and the T/C [14] was 120 % of control. For the same compound, the T/C [15] was 105 % of control.
`Clc1ncnc2nc[nH]c12` was tested, and the T/C [8] was 94 % of control and 111 % of control, the T/C [9] was 94 % of control and 100 % of control and the T/C [10] was 97 % of control and 102 % of control. For the same compound, the T/C (dose: 60.0 mg/kg/injection, vehicle: saline) was 100 % of control and 105 % of control.
`CN(C)c1nc(N(C)C)nc(N(C)C)n1` was tested, and the T/C (dose: 18.8 mg/kg/injection, vehicle: saline) was 100 % of control and 103 % of control, the T/C (dose: 37.5 mg/kg/injection, vehicle: saline) was 93 % of control and 106 % of control and the T/C (dose: 75.0 mg/kg/injection, vehicle: saline) was 100 % of control and 109 % of control. For the same compound, the T/C (dose: 150.0 mg/kg/injection, vehicle: saline) was 100 % of control and 106 % of control.
`Nc1nc2n[nH]nc2c(=O)[nH]1` was tested, and the T/C (dose: 200.0 mg/kg/injection, vehicle: alkali diluted with saline) was 115 % of control and 86 % of control.
`O=C(Nc1ccc(C2=NCCN2)cc1)c1cccc(C(=O)Nc2ccc(C3=NCCN3)cc2)c1` was tested, and the T/C [7] was 121 % of control, the T/C [21] was 121 % of control and the T/C [22] was 157 % of control. For the same compound, the T/C [23] was 186 % of control and 210 % of control.
In the case of `Nc1nc(SCc2ccccc2)c2[nH]cnc2n1`, the T/C [7] is reported as 106 % of control, the T/C [21] is reported as 106 % of control and the T/C [23] is reported as 116 % of control. The T/C (dose: 128.0 mg/kg/injection, vehicle: saline) was 112 % of control.
In the case of `CCN(CCNc1ccc(C)c2sc3cc(Cl)ccc3c(=O)c12)CC(C)O` (stereo not given), the T/C (dose: 7.8 mg/kg/injection, vehicle: saline) is reported as 94 % of control, the T/C (dose: 15.6 mg/kg/injection, vehicle: saline) is reported as 94 % of control and the T/C [24] is reported as 94 % of control. For the same compound, the T/C [25] was 88 % of control and the T/C [26] was 88 % of control.
`CN(C)c1ccc(Nc2c3ccccc3nc3ccccc23)cc1` was tested, and the T/C (dose: 54.0 mg/kg/injection, vehicle: saline) was 159 % of control and 183 % of control, the T/C [27] was 183 % of control and 187 % of control and the T/C (dose: 120.0 mg/kg/injection, vehicle: saline) was 86 % of control.
In the case of `OCC1OC(n2cnc3c(=S)nc[nH]c32)C(O)C1O` (stereo not given), the T/C [14] is reported as 117 % of control, the T/C [27] is reported as 170 % of control and 177 % of control and the T/C (dose: 160.0 mg/kg/injection, vehicle: saline) is reported as 180 % of control.
For `O=NN(CCCl)C(=O)NCCCl`, the T/C [3] was 194 % of control and 200 % of control and the T/C [4] was 97 % of control and 110 % of control.
With `O=C(Nc1ccc(C2=NCCCN2)cc1)c1ccc(NC(=O)c2ccc(C3=NCCCN3)cc2)cc1` the T/C [19] was 117 % of control, the T/C [20] was 208 % of control and 222 % of control and the T/C [28] was 177 % of control. The T/C [29] was 122 % of control.
For `O=C(Nc1ccc(C2=NCCN2)cc1)c1ccc(C(=O)Nc2ccc(C3=NCCN3)cc2)c(Cl)c1`, the T/C [20] was 111 % of control and 115 % of control, the T/C [28] was 113 % of control and the T/C [29] was 168 % of control. The T/C [30] was 151 % of control and 197 % of control and the T/C [31] was 95 % of control.
`O=c1cn[nH]c(=O)[nH]1` was tested, and the T/C [24] was 92 % of control and 100 % of control, the T/C [25] was 95 % of control and 100 % of control and the T/C [26] was 97 % of control. The T/C (dose: 500.0 mg/kg/injection, vehicle: saline) was 90 % of control and 102 % of control.
For `COc1cc(-c2ccc(Nc3ccccc3C(=O)O)c(OC)c2)ccc1Nc1ccccc1C(=O)O`, the T/C [18] was 105 % of control and the T/C [5] was 100 % of control.
For `O=C(Nc1ccc(C2=NCCN2)cc1)c1ccc(C(=O)Nc2ccc(C3=NCCN3)cc2)cc1`, the T/C [28] was 168 % of control, the T/C [29] was 277 % of control and 302 % of control and the T/C [30] was 242 % of control and 302 % of control. For the same compound, the T/C [31] was 166 % of control and 231 % of control and the T/C (dose: 64.0 mg/kg/injection, vehicle: other) was 168 % of control.
For `Cc1cc(N(CCCl)CCCl)ccc1N=Nc1ccccc1C(=O)O`, the T/C [12] was 100 % of control, the T/C [13] was 103 % of control and the T/C [14] was 113 % of control and 122 % of control. For the same compound, the T/C [15] was 106 % of control.
For `C[C@H]1C(=O)O[C@@H]2CCN3CC=C(COC(=O)[C@](C)(O)[C@@]1(C)O)[C@H]23`, the T/C [16] was 103 % of control, the T/C [3] was 100 % of control and the T/C [4] was 103 % of control. The T/C [17] was 121 % of control.

Reference: PubChem BioAssay AID340 (DTP/NCI, 2004)
